Data: patent US7655662B2, “(Indazol-5-yl)-pyrazines and (1,3-dihydro-indol-2-one)-pyrazines for treating glaucoma and controlling intraocular pressure” (Alcon Research, Ltd., priority 2005, dated 2010)
pIC50: −log10 of the molar value. Counter-ions that a name gives are not always drawn.

target: T1, Human recombinant Rho kinase (ROKα/ROCK-II, (aa 11-552)) (Homo sapiens, UniProt O75116); assay: Rho kinase II (ROCK II) IMAP fluorescence polarization inhibition assay; type: biochemical; details: IMAP ROCK II kit; substrate 200 nM, ATP 10 μM; 60 min at 23° C.; read-out: Rho kinase II Binding Data IC50
T1 construct: Human recombinant Rho kinase (ROKα/ROCK-II, (aa 11-552), human active); purchased Upstate Biotechnology Co., Lake Placid, N.Y. 14-451
T1 sequence (O75116 11-552): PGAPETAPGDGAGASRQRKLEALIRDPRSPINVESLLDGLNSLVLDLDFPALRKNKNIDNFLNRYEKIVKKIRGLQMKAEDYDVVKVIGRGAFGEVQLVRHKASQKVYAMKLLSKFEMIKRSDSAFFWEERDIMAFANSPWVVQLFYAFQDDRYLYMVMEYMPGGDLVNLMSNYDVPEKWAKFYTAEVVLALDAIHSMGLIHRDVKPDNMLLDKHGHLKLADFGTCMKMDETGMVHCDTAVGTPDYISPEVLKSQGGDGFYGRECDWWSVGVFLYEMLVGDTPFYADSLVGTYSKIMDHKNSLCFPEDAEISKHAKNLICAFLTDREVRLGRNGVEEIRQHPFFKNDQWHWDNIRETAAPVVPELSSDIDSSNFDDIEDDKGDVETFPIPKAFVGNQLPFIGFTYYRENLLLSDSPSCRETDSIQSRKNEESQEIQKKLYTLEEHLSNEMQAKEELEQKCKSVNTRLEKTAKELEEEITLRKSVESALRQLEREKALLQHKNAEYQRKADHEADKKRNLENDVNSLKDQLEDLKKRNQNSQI
Method: The ability of certain compounds of Formula (I) to inhibit rho kinase is evaluated by means of in vitro assays. Human recombinant Rho kinase (ROKα/ROCK-II, (aa 11-552), human active, catalog #14-451, Upstate Biotechnology Co., Lake Placid, N.Y.), MgCl2/ATP cocktail, and enzyme substrate (Upstate) is used.
Fluorescence polarization assays are performed using a Biomek 2000 Robotic Workstation (Beckman Instruments, Palo Alto, Calif.) in a 96-well plate format. The assays are performed utilizing the IMAP ROCK II kit (Molecular Devices, Sunnyvale, Calif.) as follows. Substrate and ATP concentrations used are 200 nM and 10 μM, respectively, while the enzyme concentration is 3.96×10^−3 units per well. The substrate, enzyme, and ATP dilutions are made with the reaction buffer provided by the vendor. Test compounds are diluted in 10:10 DMSO-ethanol (vol/vol). For the actual assays, the various components are added into black, clear bottom, 96-well plates (Costar, Corning, N.Y.) in a final volume of 20 μl per well. After the enzyme reaction (60 min at 23° C.), 60 μl of the binding solution (IMAP kit, provided by vendor) is added per well and incubated for an additional 30 minutes in the dark at 23° C. Fluorescence polarization of the reaction mixtures is then measured on the Analyst™ HT instrument (Molecular Devices, Sunnyvale, Calif.).
The data generated are then analyzed using a non-linear, iterative, sigmoidal-fit computer program purchased from IDBS (Emeryville, Calif.) and as previously described (Sharif et al., J Pharmacol. Exp. Ther. 286:1094-1102, 1998; Sharif et al., J Pharmacol. Expt. Ther. 293:321-328, 2000; Sharif et al., J Ocular Pharmacol. Ther. 18:141-162, 2002a; Sharif et al., J Pharmac. Pharmacol. 54:539-547, 2002b) to generate the inhibition constants for the test compounds.

Point of comparison: `Cc1n[nH]c2ccc(-c3cncc(NCC(N)Cc4cc5ccccc5[nH]4)n3)cc12` (stereo not drawn) [Example 3], pIC50 6.23. Against it:
- Cc1n[nH]c2ccc(-c3cncc(NC[C@@H](N)Cc4ccccc4)n3)cc12 [Example 1, (S)-N^1-[6-(3-Methyl-1H-indazole-5-yl)-pyrazin-2-yl]-3-phenyl-propane-1,2-diamine dihydrochloride] — 0.49 log units higher, 6.72
- Cc1n[nH]c2ccc(-c3cncc(NC[C@@H](N)Cc4ccccc4)n3)cc12 (single isomer, unassigned) [Example 2] — 1.01 log units higher, 7.24
